Test results from ChEMBL document CHEMBL1201861, “Genomics of Drug Sensitity in Cancer screening data, Wellcome Trust Sanger Institute”.

Columns and labels:
Experiment in all cases: cells
Settings in all cases: Homo sapiens
LOX IMVI = type: functional, cell-based
Description: SANGER: Inhibition of human LOXIMVI cell growth in a cell viability assay.

KARPAS-45 = type: functional, cell-based;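 further: inhibition of cell line growth, read out through a viability assay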
Description: SANGER: Inhibition of human KARPAS-45 cell growth in a cell viability assay.

JVM-2 = type: functional, cell-based;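 further: growth inhibition of JVM-2 cells determined by a cell viability assay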
Description: SANGER: Inhibition of human JVM-2 cell growth in a cell viability assay.

L-363 = type: functional, cell-based
Description: SANGER: Inhibition of human L-363 cell growth in a cell viability assay.

SBC-1 = type: functional, cell-based;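 further: cell viability assay measuring growth inhibition of the SBC-1 cell line, IC50 being the concentration that halves growth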
Description: SANGER: Inhibition of human SBC-1 cell growth in a cell viability assay.

D283 Med = type: functional, cell-based
Description: SANGER: Inhibition of human D-283MED cell growth in a cell viability assay.

JAR = type: functional, cell-based;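 further: growth inhibition of human JAR cells determined with a cell viability assay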
Description: SANGER: Inhibition of human JAR cell growth in a cell viability assay.

Calu-6 = type: functional, cell-based;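 further: growth of human Calu-6 cells, read out by a cell viability assay, IC50 marking inhibition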
Description: SANGER: Inhibition of human Calu-6 cell growth in a cell viability assay.

D-502MG = type: functional, cell-based
Description: SANGER: Inhibition of human D-502MG cell growth in a cell viability assay.

ONS-76 = type: functional, cell-based;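 further: growth inhibition of human ONS-76 cells, read out with a cell viability assay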
Description: SANGER: Inhibition of human ONS-76 cell growth in a cell viability assay.

HT-144 = type: functional, cell-based
Description: SANGER: Inhibition of human HT-144 cell growth in a cell viability assay.

MOLT-4 = type: functional, cell-based;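 further: growth inhibition of MOLT-4 cells, determined with a cell viability readout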
Description: SANGER: Inhibition of human MOLT-4 cell growth in a cell viability assay.

NTERA-2-cl-D1 = type: functional, cell-based;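 further: inhibition of cell growth, measured with a cell viability assay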
Description: SANGER: Inhibition of human NTERA-S-cl-D1 cell growth in a cell viability assay.

TE-11 = type: functional, cell-based;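 further: growth inhibition of human TE-11 cells, read out by a cell viability assay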
Description: SANGER: Inhibition of human TE-11 cell growth in a cell viability assay.

ES3 = type: functional, cell-based;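 further: growth inhibition of ES3 cells, read out with a cell viability assay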
Description: SANGER: Inhibition of human ES3 cell growth in a cell viability assay.

IST-MES1 = type: functional, cell-based;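 further: growth inhibition of IST-MES1 cells, measured with a cell viability assay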
Description: SANGER: Inhibition of human IST-MES1 cell growth in a cell viability assay.

IA-LM = type: functional, cell-based;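 further: cell viability assay measuring growth inhibition of human IA-LM cells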
Description: SANGER: Inhibition of human IA-LM cell growth in a cell viability assay.

RPMI-8866 = type: functional, cell-based
Description: SANGER: Inhibition of human RPMI-8866 cell growth in a cell viability assay.

Lu-65 = type: functional, cell-based;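 further: growth inhibition of Lu-65 cancer cells, read out by a cell viability assay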
Description: SANGER: Inhibition of human LU-65 cell growth in a cell viability assay.

OVCAR-4 = type: functional, cell-based;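 further: growth inhibition of human OVCAR-4 cells, measured with a cell viability assay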
Description: SANGER: Inhibition of human OVCAR-4 cell growth in a cell viability assay.

NMC-G1 = type: functional, cell-based;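 further: growth inhibition of the NMC-G1 cell line, measured with a cell viability read-out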
Description: SANGER: Inhibition of human NMC-G1 cell growth in a cell viability assay.

SNU1 = type: functional, cell-based;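 further: growth inhibition of human NCI-SNU-1 cells, measured with a cell viability assay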
Description: SANGER: Inhibition of human NCI-SNU-1 cell growth in a cell viability assay.

OCUB-M = type: functional, cell-based;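 further: growth inhibition of the cancer cell line, read out through a cell viability assay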
Description: SANGER: Inhibition of human OCUB-M cell growth in a cell viability assay.

EW-1 = type: functional, cell-based;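 further: growth inhibition of the human EW-1 cell line, read out by a cell viability assay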
Description: SANGER: Inhibition of human EW-1 cell growth in a cell viability assay.

GAK = type: functional, cell-based;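 further: cell growth inhibition read out by a cell viability assay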
Description: SANGER: Inhibition of human GAK cell growth in a cell viability assay.

A3-KAW = type: functional, cell-based;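 further: growth inhibition of human A3-KAW cells, read out with a cell viability assay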
Description: SANGER: Inhibition of human A3-KAW cell growth in a cell viability assay.

GI-ME-N = type: functional, cell-based;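 further: growth inhibition of human GI-ME-N cells, read out with a cell viability assay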
Description: SANGER: Inhibition of human GI-ME-N cell growth in a cell viability assay.

A4-Fuk = type: functional, cell-based;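 further: growth inhibition of A4-Fuk cells, read out by a cell viability assay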
Description: SANGER: Inhibition of human A4-Fuk cell growth in a cell viability assay.

NCI-H1770 = type: functional, cell-based;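 further: growth inhibition of NCI-H1770 cells determined with a viability readout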
Description: SANGER: Inhibition of human NCI-H1770 cell growth in a cell viability assay.

CW-2 = type: functional, cell-based;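 further: growth inhibition of CW-2 cells, read out by a cell viability assay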
Description: SANGER: Inhibition of human CW-2 cell growth in a cell viability assay.

A704 = type: functional, cell-based;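 further: growth inhibition of human A704 cells, read out with a cell viability assay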
Description: SANGER: Inhibition of human A704 cell growth in a cell viability assay.

NCI-H1581 = type: functional, cell-based;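 further: cell growth inhibition read out by a viability assay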
Description: SANGER: Inhibition of human NCI-H1581 cell growth in a cell viability assay.

COR-L88 = type: functional, cell-based;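 further: growth inhibition of COR-L88 cells, read out with a cell viability assay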
Description: SANGER: Inhibition of human COR-L88 cell growth in a cell viability assay.

LU-134-A = type: functional, cell-based
Description: SANGER: Inhibition of human LU-134-A cell growth in a cell viability assay.

LAN-6 = type: functional, cell-based;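 further: growth inhibition of LAN-6 cells, determined with a cell viability assay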
Description: SANGER: Inhibition of human LAN-6 cell growth in a cell viability assay.

DEL = type: functional, cell-based;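 further: growth inhibition of the human DEL cell line, read out with a cell viability assay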
Description: SANGER: Inhibition of human DEL cell growth in a cell viability assay.

GT3TKB = type: functional, cell-based;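 further: growth inhibition of the cell line, read out with a cell viability assay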
Description: SANGER: Inhibition of human GT3TKB cell growth in a cell viability assay.

HH = type: functional, cell-based
Description: SANGER: Inhibition of human HH cell growth in a cell viability assay.

KARPAS-299 = type: functional, cell-based
Description: SANGER: Inhibition of human KARPAS-299 cell growth in a cell viability assay.

ES5 = type: functional, cell-based;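 further: growth inhibition of human ES5 cells, read out by a cell viability assay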
Description: SANGER: Inhibition of human ES5 cell growth in a cell viability assay.

SW 962 = type: functional, cell-based;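 further: growth inhibition of human SW962 cells, read out by a cell viability assay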
Description: SANGER: Inhibition of human SW962 cell growth in a cell viability assay.

RXF 393 = type: functional, cell-based;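 further: growth inhibition of human RXF 393 cells, read out with a cell viability assay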
Description: SANGER: Inhibition of human RXF393 cell growth in a cell viability assay.

TE-10 = type: functional, cell-based;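 further: growth inhibition of TE-10 cells, measured by a cell viability assay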
Description: SANGER: Inhibition of human TE-10 cell growth in a cell viability assay.

DB = type: functional, cell-based
Description: SANGER: Inhibition of human DB cell growth in a cell viability assay.

MZ7-mel = type: functional, cell-based;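 further: growth inhibition of human MZ7-mel cells, measured by a cell viability assay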
Description: SANGER: Inhibition of human MZ7-mel cell growth in a cell viability assay.

HL-60 = type: functional, cell-based;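 further: growth inhibition of human HL-60 cells, read out with a cell viability assay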
Description: SANGER: Inhibition of human HL-60 cell growth in a cell viability assay.

LC-2-ad = type: functional, cell-based;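 further: growth inhibition of human LC-2-ad cells, read out with a cell viability assay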
Description: SANGER: Inhibition of human LC-2-ad cell growth in a cell viability assay.

QIMR-WIL = type: functional, cell-based;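 further: growth inhibition of QIMR-WIL cells, read out with a cell viability assay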
Description: SANGER: Inhibition of human QIMR-WIL cell growth in a cell viability assay.

LB2518-MEL = type: functional, cell-based;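 further: growth inhibition of human LB2518-MEL cells, measured with a cell viability assay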
Description: SANGER: Inhibition of human LB2518-MEL cell growth in a cell viability assay.

MHH-PREB-1 = type: functional, cell-based;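 further: cell viability assay measuring inhibition of proliferation of human MHH-PREB-1 cells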
Description: SANGER: Inhibition of human MHH-PREB-1 cell growth in a cell viability assay.

UACC-257 = type: functional, cell-based
Description: SANGER: Inhibition of human UACC-257 cell growth in a cell viability assay.

MV4-11 = type: functional, cell-based, MV-4-11;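 further: cell viability readout measuring growth inhibition of human MV-4-11 cells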
Description: SANGER: Inhibition of human MV-4-11 cell growth in a cell viability assay.

DOHH-2 = type: functional, cell-based;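 further: growth inhibition of human DOHH-2 cells, read out with a cell viability assay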
Description: SANGER: Inhibition of human DOHH-2 cell growth in a cell viability assay.

J-RT3-T3-5 = type: functional, cell-based;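 further: cell viability assay measuring growth inhibition of human J-RT3-T3-5 cells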
Description: SANGER: Inhibition of human J-RT3-T3-5 cell growth in a cell viability assay.

SK-PN-DW = type: functional, cell-based;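 further: growth inhibition measured with a viability assay on these cells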
Description: SANGER: Inhibition of human SK-PN-DW cell growth in a cell viability assay.

MLMA = type: functional, cell-based;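 further: growth inhibition of MLMA cells (human), determined through a cell viability readout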
Description: SANGER: Inhibition of human MLMA cell growth in a cell viability assay.

SHP77 = type: functional, cell-based, SHP-77;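 further: growth inhibition of human SHP-77 cells measured by a cell viability assay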
Description: SANGER: Inhibition of human SHP-77 cell growth in a cell viability assay.

ES8 = type: functional, cell-based;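 further: growth inhibition of human ES8 cells, read out with a cell viability assay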
Description: SANGER: Inhibition of human ES8 cell growth in a cell viability assay.

SK-N-FI = type: functional, cell-based
Description: SANGER: Inhibition of human SK-N-FI cell growth in a cell viability assay.

MEG-01 = type: functional, cell-based
Description: SANGER: Inhibition of human MEG-01 cell growth in a cell viability assay.

KM12 = type: functional, cell-based
Description: SANGER: Inhibition of human KM12 cell growth in a cell viability assay.

KALS-1 = type: functional, cell-based
Description: SANGER: Inhibition of human KALS-1 cell growth in a cell viability assay.

Cn1c(=O)n(-c2ccc(C(C)(C)C#N)cc2)c2c3cc(-c4cnc5ccccc5c4)ccc3ncc21 [DACTOLISIB]
IC50 (LOX IMVI): 15 nM
IC50 (KARPAS-45): 13.5 nM
IC50 (JVM-2): > 2000 nM
IC50 (L-363): 10.7 nM
IC50 (SBC-1): < 7.81 nM
IC50 (D283 Med): 49.6 nM
IC50 (JAR): 956 nM
IC50 (Calu-6): > 2000 nM
IC50 (D-502MG): 106 nM
IC50 (ONS-76): 29.1 nM
IC50 (HT-144): 196 nM
IC50 (MOLT-4): 25.1 nM
IC50 (NTERA-2-cl-D1): 43 nM
IC50 (TE-11): 56 nM
IC50 (ES3): 25.2 nM
IC50 (IST-MES1): 237 nM
IC50 (IA-LM): 108 nM
IC50 (RPMI-8866): 72.8 nM
IC50 (Lu-65): 1620 nM
IC50 (OVCAR-4): 73.4 nM
IC50 (NMC-G1): 121 nM
IC50 (SNU1): 22 nM
IC50 (OCUB-M): 82.4 nM
IC50 (EW-1): 120 nM
IC50 (GAK): 98.9 nM
IC50 (A3-KAW): 28.6 nM
IC50 (GI-ME-N): 29.9 nM
IC50 (A4-Fuk): 46.5 nM
IC50 (NCI-H1770): 327 nM
IC50 (CW-2): 270 nM
IC50 (A704): 55.6 nM
IC50 (NCI-H1581): 64 nM
IC50 (COR-L88): 848 nM
IC50 (LU-134-A): 79 nM
IC50 (LAN-6): > 2000 nM
IC50 (DEL): 20.5 nM
IC50 (GT3TKB): 118 nM
IC50 (HH): 15.7 nM
IC50 (KARPAS-299): 1790 nM
IC50 (ES5): 14.7 nM
IC50 (SW 962): 26.8 nM
IC50 (RXF 393): 21.4 nM
IC50 (TE-10): 407 nM
IC50 (DB): 27.4 nM
IC50 (MZ7-mel): 324 nM
IC50 (HL-60): 123 nM
IC50 (LC-2-ad): 159 nM
IC50 (QIMR-WIL): 30.6 nM
IC50 (LB2518-MEL): 157 nM
IC50 (MHH-PREB-1): 9.12 nM
IC50 (UACC-257): 214 nM
IC50 (MV4-11): 28.7 nM
IC50 (DOHH-2): 46.4 nM
IC50 (J-RT3-T3-5): 23 nM
IC50 (SK-PN-DW): 235 nM
IC50 (MLMA): 137 nM
IC50 (SHP77): > 2000 nM
IC50 (ES8): 10.9 nM
IC50 (SK-N-FI): 148 nM
IC50 (MEG-01): 63.5 nM
IC50 (KM12): 236 nM
IC50 (KALS-1): 82.5 nM

CC(=O)c1c(C)c2cnc(Nc3ccc(N4CCNCC4)cn3)nc2n(C2CCCC2)c1=O [PALBOCICLIB]
IC50 (LOX IMVI): 1910 nM
IC50 (KARPAS-45): 376 nM
IC50 (JVM-2): > 4000 nM
IC50 (L-363): 1870 nM
IC50 (SBC-1): > 4000 nM
IC50 (D283 Med): 2720 nM
IC50 (JAR): > 4000 nM
IC50 (Calu-6): > 4000 nM
IC50 (D-502MG): > 4000 nM
IC50 (ONS-76): 678 nM
IC50 (HT-144): > 4000 nM
IC50 (MOLT-4): 345 nM
IC50 (NTERA-2-cl-D1): > 4000 nM
IC50 (TE-11): 1050 nM
IC50 (ES3): 729 nM
IC50 (IST-MES1): 3830 nM
IC50 (IA-LM): > 4000 nM
IC50 (RPMI-8866): 1590 nM
IC50 (Lu-65): > 4000 nM
IC50 (OVCAR-4): > 4000 nM
IC50 (NMC-G1): > 4000 nM
IC50 (SNU1): 1160 nM
IC50 (OCUB-M): > 4000 nM
IC50 (EW-1): > 4000 nM
IC50 (GAK): > 4000 nM
IC50 (A3-KAW): 1080 nM
IC50 (GI-ME-N): > 4000 nM
IC50 (A4-Fuk): > 4000 nM
IC50 (NCI-H1770): 941 nM
IC50 (CW-2): > 4000 nM
IC50 (A704): > 4000 nM
IC50 (NCI-H1581): > 4000 nM
IC50 (COR-L88): > 4000 nM
IC50 (LU-134-A): > 4000 nM
IC50 (LAN-6): > 4000 nM
IC50 (DEL): 1700 nM
IC50 (GT3TKB): 2590 nM
IC50 (HH): 599 nM
IC50 (KARPAS-299): > 4000 nM
IC50 (ES5): 753 nM
IC50 (SW 962): 809 nM
IC50 (RXF 393): 813 nM
IC50 (TE-10): > 4000 nM
IC50 (DB): 1070 nM
IC50 (MZ7-mel): > 4000 nM
IC50 (HL-60): 341 nM
IC50 (LC-2-ad): > 4000 nM
IC50 (QIMR-WIL): 1130 nM
IC50 (LB2518-MEL): > 4000 nM
IC50 (MHH-PREB-1): 637 nM
IC50 (UACC-257): > 4000 nM
IC50 (MV4-11): 514 nM
IC50 (DOHH-2): > 4000 nM
IC50 (J-RT3-T3-5): 936 nM
IC50 (SK-PN-DW): > 4000 nM
IC50 (MLMA): > 4000 nM
IC50 (SHP77): > 4000 nM
IC50 (ES8): 605 nM
IC50 (SK-N-FI): > 4000 nM
IC50 (MEG-01): > 4000 nM
IC50 (KM12): 1820 nM
